In PMC11864979, “First-in-class ultralong-target-residence-time p38α inhibitors as a mitosis-targeted therapy for colorectal cancer” (Nature Cancer, 2025):
Several values for one entry are separate records, joined by “and”; a condition that tells them apart may be missing. Equal entries are not always repeated. Where two headings read alike, the source gives them in different places.

What was measured:
PDO15 = test: cell viability in patient-derived CRC organoids PDO15; type: cell-based, human
Protocol: (§1) For in vitro treatment studies, organoids were mechanically dissociated and digested using TrypLE supplemented with 100 µg ml^−1 DNaseI and 10.5 µM Y-27632 dihydrochloride (Invitrogen) at 37 °C. A total of 1,000–2,000 single cells were plated per well in white 96-well plates (Greiner) in culture medium containing 10% GFR Matrigel or Cultrex BME. The treatment with doxycycline (5 µg ml^−1), pharmacological inhibitors or corresponding volumes of DMSO was started 24 h after plating. Doxycycline was obtained from Sigma-Aldrich. […] Cell viability was measured by means of CellTiter-Glo 3D or CellTiter-Glo 2.0 reagent (Promega) according to the manufacturers’ instructions and the Infinite M Plex reader (Tecan, i-control version 3.9.1 software). Results were normalized to vehicle (DMSO) or to shNC. For cell-doubling assays, the cell number was quantified at the corresponding time points using Guava EasyCyte flow cytometer (Luminex, CytoSoft v5.2 software).

PDO12 = test: cell viability in patient-derived CRC organoids PDO12; type: cell-based, human
Protocol: as §1

RKO = test: cell viability in human CRC cell line RKO; type: cell-based; conditions: ED Fig. 9g, replicates
Protocol: To generate KAP^2D cells, KAP organoids were isolated from Matrigel, fragmented by mechanical dissociation and plated without any extracellular matrix on common cell culture dishes. Phoenix-Eco packaging cells (CRL-3214), HCT-15 (CCL-225), HCT 116 (CCL-247), COLO 205 (CCL-222), LS 174T (CL-188), RKO (CRL-2577) and HT-29 (HTB-38) were obtained from the American Type Culture Collection. The cells were cultured at 37 °C and 7% CO2 with RPMI (KAP^2D cells) or DMEM (other cell lines), supplemented with 10% FBS and penicillin–streptomycin. KAP^2D cells were authenticated using PCR (Kras locus and Trp53 locus). Phoenix-Eco packaging cells and HCT-15, HCT 116, COLO 205, LS 174T, RKO and HT-29 cells were authenticated by the provider using short tandem repeat profiling. No commonly misidentified cell lines were used. Mycoplasma contamination was excluded by a PCR-based analysis.
as §1

p38α = p38α (Homo sapiens, UniProt Q16539); test: target residence time (TRT) fluorescence polarization jump-dilution assay; type: binding
p38α, sequence (Q16539 whole entry): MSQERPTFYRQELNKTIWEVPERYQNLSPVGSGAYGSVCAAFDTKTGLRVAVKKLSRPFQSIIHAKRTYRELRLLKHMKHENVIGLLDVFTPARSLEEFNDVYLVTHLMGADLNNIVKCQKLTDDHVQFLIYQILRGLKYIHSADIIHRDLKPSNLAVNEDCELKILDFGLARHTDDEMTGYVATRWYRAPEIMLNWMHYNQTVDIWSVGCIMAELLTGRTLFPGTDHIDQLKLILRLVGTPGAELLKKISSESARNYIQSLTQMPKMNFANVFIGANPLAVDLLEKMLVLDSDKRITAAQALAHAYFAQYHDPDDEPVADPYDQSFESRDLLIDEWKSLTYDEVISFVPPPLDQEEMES
Protocol: TRTs were determined using a fluorescence polarization assay kit (Transcreener ADP, BellBrook Labs)[29]. […] The formed complex was ‘jump-diluted’ 1:100 (0.5 µl in 49.5 µl) in a 96-half-area-well plate with ATF2 (82 μM), ATP (40 μM) and ADP as the kinase assay detection reagents. The plate was measured every 3 min for 4 h. Fluorescence polarization was detected using the plate reader VictorNivo (PerkinElmer). The data were analyzed using the integrated rate equation in GraphPad Prism version 7.03 software. The residence time was calculated from the reciprocal value of koff.

KAP organoids = test: cell viability in KAP organoids (CellTiter-Glo); type: cell-based, mouse; conditions: replicates
How it was run: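 Dissociate organoids (TrypLE, DNaseI, Y-27632, 37 °C); seed 1,000–2,000 single cells per well in medium containing 10% GFR Matrigel or Cultrex BME; after 24 h add inhibitor or DMSO; measure viability with CellTiter-Glo and normalize to vehicle.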

## O=C(NCCN1CCOCC1)c1ccc2c(c1)C(=O)c1ccc(Nc3ccc(F)c(NC(=O)c4ccccc4)c3)cc1CC2 [Compound 1639]
PDO15; Homo sapiens, 96 h, PDO15, 0.5 µM, 4 d, read-out: Cell viability (%)
  viability at 0.5 µM: 101%
PDO15; Homo sapiens, 96 h, PDO15, 1 µM, 4 days, read-out: Cell viability (%)
  viability at 1 µM: 87.7%
PDO15; PDO15, 0.5 µM, 4 d, 0.5 µM
  Cell viability (%): 102.64% and 92.86%
PDO15; PDO15, 1 µM, 4 days, 1 µM
  Cell viability (%): 91.79% and 86.01%
PDO12; PDO12, 0.5 µM, 4 d, 0.5 µM
  Cell viability (%): 74.14% and 86.52% and 99.28%
PDO12; PDO12, 1 µM, 4 days, 1 µM
  Cell viability (%): 67.94% and 91.05% and 88.04%
RKO; 0.0137 µM, Repetition
  RKO Cell viability (%): 124.75% and 148.62% and 118.75%
RKO; 0.0137 µM, first experiment
  RKO Cell viability (%): 98.53% and 90.98%
RKO; 0.0412 µM, Repetition
  RKO Cell viability (%): 93.50% and 149.21% and 112.61%
RKO; 0.0412 µM, first experiment
  RKO Cell viability (%): 86.59% and 83.94%
RKO; 0.1235 µM, Repetition
  RKO Cell viability (%): 125.44% and 110.57%
RKO; 0.1235 µM, first experiment
  RKO Cell viability (%): 85.12% and 86.17%
RKO; 0.3704 µM, Repetition
  RKO Cell viability (%): 111.28% and 89.40%
RKO; 0.3704 µM, first experiment
  RKO Cell viability (%): 77.62% and 74.11%
RKO; 1.1111 µM, Repetition
  RKO Cell viability (%): 109.66% and 139.17% and 117.64%
RKO; 1.1111 µM, first experiment
  RKO Cell viability (%): 95.27% and 88.88%
RKO; 3.3333 µM, Repetition
  RKO Cell viability (%): 74.32% and 93.61% and 73.54%
RKO; 3.3333 µM, first experiment
  RKO Cell viability (%): 74.12% and 74.43%
RKO; 10.0000 µM, Repetition
  RKO Cell viability (%): 42.39% and 44.96%
RKO; 10.0000 µM, first experiment
  RKO Cell viability (%): 30.57% and 37.00%
RKO; Homo sapiens, RKO, 0.0137 µM, first experiment, read-out: RKO Cell viability (%)
  viability at 0.0137 µM: 96.7%
RKO; Homo sapiens, RKO, 0.0412 µM, first experiment, read-out: RKO Cell viability (%)
  viability at 0.0412 µM: 88.2%
RKO; Homo sapiens, RKO, 0.1235 µM, Repetition, read-out: RKO Cell viability (%)
  viability at 0.1235 µM: 111%
RKO; Homo sapiens, RKO, 0.1235 µM, first experiment, read-out: RKO Cell viability (%)
  viability at 0.1235 µM: 82.2%
RKO; Homo sapiens, RKO, 0.3704 µM, first experiment, read-out: RKO Cell viability (%)
  viability at 0.3704 µM: 86%
RKO; Homo sapiens, RKO, 1.1111 µM, first experiment, read-out: RKO Cell viability (%)
  viability at 1.1111 µM: 85.9%
RKO; Homo sapiens, RKO, 3.3333 µM, first experiment, read-out: RKO Cell viability (%)
  viability at 3.3333 µM: 75%
RKO; Homo sapiens, RKO, 10.0000 µM, Repetition, read-out: RKO Cell viability (%)
  viability at 10 µM: 43.1%
RKO; Homo sapiens, RKO, 10.0000 µM, first experiment, read-out: RKO Cell viability (%)
  viability at 10 µM: 31.2%
p38α; Fig. 2e, replicates
  TRT: 191.2 s and 188.8 s and 173.0 s
p38α; reciprocal of koff
  TRT: 184 s
KAP organoids; Fig. 1g, 0.5 µM
  Cell viability (%): 93.61% and 119.78% and 82.99%
KAP organoids; Fig. 1g, 1 µM
  Cell viability (%): 54.56% and 39.62%
KAP organoids; Fig. 2b, compound screen
  Cell viability (%): 45.26% and 35.57% and 35.59%
KAP organoids; Fig. 2f, 0,5 µM, 5 µM
  Cell viability (%): 109.96% and 85.33% and 68.50%
KAP organoids; Fig. 2f, 0,25 µM, 25 µM
  Cell viability (%): 115.00% and 101.97% and 82.44%
